Test results: patent publication US7129239B2, “Purine compounds and uses thereof” (Pfizer Inc., priority 2002, dated 2006)

Tested on: CB-1 receptor
Assay: CB-1 receptor binding assay ([3H]SR141716A displacement)
Details: rat or human protocol not specified
Experimental: The following assays were designed to detect compounds that inhibit the binding of [^3H] SR141716A (selective radiolabeled CB-1 ligand) and [^3H]
PelFreeze brains (available from Pel Freeze Biologicals, Rogers, Ark.) were cut up and placed in tissue preparation buffer (5 mM Tris HCl, pH=7.4 and 2 mM EDTA), polytroned at high speed and kept on ice for 15 minutes. The homogenate was then spun at 1,000×g for 5 minutes at 4° C. The supernatant was recovered and centrifuged at 100,000×G for 1 hour at 4° C. […] A protein assay was performed and 200 μl of tissue totaling 20 μg was added to the assay.
The test compounds were diluted in drug buffer (0.5% BSA, 10% DMSO and TME) and then 25 μl were added to a deep well polypropylene plate. [^3H] SR141716A was diluted in a ligand buffer (0.5% BSA plus TME) and 25 μl were added to the plate. A BCA protein assay was used to determine the appropriate tissue concentration and then 200 μl of rat brain tissue at the appropriate concentration was added to the plate. […] In the morning the filters were counted on a Wallac Betaplate™ counter (available from PerkinElmer Life Sciences™, Boston, Mass.). […]
The test compounds were diluted in drug buffer (0.5% BSA, 10% DMSO and TME) and then 25 μl were added to a deep well polypropylene plate. […] In the morning the filters were counted on a Wallac Betaplate™ counter (available from PerkinElmer Life Sciences™, Boston, Mass.).

| Compound | binding activity [nM] |
| --- | --- |
| O=C([O-])C1(Nc2ncnc3c2nc(-c2ccccc2Cl)n3-c2ccc(Cl)cc2)CCCC1.[K+] [Example 19A-1, 1-[9-(4-chlorophenyl)-8-(2-chlorophenyl)-9H-purin-6-ylamino]-cyclopentanecarboxylic Acid, Potassium Salt] | 2.8 |
| NC1(C(=O)[O-])CCN(c2ncnc3c2nc(-c2ccccc2Cl)n3-c2ccc(Cl)cc2)CC1.[K+] [Example 19A-2, 4-Amino-1-[9-(4-chlorophenyl)-8-(2-chlorophenyl)-9H-purin-6-yl]-piperidine-4-carboxylic Acid, Potassium Salt] | 1.2 |
